The target in one series is human CYP2C19 (Homo sapiens, UniProt P33261). Put plainly: biochemical.
The target in another series is human CYP2D6 (Homo sapiens, UniProt P10635).
Another series addresses CYP3A4 (Homo sapiens, UniProt P08684).
A further series concerns the target T1, human CYP1A2 (Homo sapiens, UniProt P05177).
T1 sequence (P05177 1-516): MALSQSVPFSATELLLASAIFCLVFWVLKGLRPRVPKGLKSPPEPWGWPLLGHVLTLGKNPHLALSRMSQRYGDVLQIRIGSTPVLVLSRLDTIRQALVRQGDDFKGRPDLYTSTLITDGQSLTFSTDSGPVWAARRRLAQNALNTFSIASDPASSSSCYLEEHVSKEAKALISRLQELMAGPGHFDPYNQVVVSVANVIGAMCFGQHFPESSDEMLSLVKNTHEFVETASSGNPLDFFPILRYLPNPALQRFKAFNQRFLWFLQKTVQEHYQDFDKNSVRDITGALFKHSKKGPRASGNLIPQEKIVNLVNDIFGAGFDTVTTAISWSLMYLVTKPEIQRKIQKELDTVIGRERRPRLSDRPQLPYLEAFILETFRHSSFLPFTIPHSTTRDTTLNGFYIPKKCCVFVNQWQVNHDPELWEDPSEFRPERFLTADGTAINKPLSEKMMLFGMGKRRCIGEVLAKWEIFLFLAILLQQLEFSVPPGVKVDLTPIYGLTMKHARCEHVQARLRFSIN
Put plainly: biochemical.

For series [1], the target named is T2, human CYP2C9 (Homo sapiens, UniProt P11712).
T2 sequence (P11712 whole entry): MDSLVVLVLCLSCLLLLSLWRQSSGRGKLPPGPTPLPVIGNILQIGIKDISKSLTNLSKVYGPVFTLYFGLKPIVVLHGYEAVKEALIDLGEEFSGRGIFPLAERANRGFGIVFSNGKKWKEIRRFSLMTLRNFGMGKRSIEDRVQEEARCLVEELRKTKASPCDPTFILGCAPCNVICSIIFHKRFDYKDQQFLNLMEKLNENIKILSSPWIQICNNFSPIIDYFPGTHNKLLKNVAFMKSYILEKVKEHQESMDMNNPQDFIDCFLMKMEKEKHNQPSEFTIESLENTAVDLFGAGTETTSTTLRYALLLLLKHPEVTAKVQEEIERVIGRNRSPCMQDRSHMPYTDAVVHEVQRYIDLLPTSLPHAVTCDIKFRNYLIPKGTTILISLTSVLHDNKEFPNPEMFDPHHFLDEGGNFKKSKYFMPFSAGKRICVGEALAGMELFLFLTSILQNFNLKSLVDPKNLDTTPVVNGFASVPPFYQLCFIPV
Series [2] addresses Photinus pyralis (firefly) luciferase (Photinus pyralis, UniProt P08659). Put plainly: biochemical. Type of series: biochemical.
For series [3], the target named is T2, human CYP2C9. As to the kind of experiment: biochemical.
Setting [4] is: CYP2C9 AC50 (half-maximal activity concentration).
[5] abbreviates: CYP2C19 AC50 (half-maximal activity concentration).
Where [6] appears, read: CYP1A2 AC50 (half-maximal activity concentration).

The values that follow come from article PMC12155096 (International Journal of Molecular Sciences, 2025).

Structures can show the parent of a compound that is named as a salt. Where two headings read alike, the source gives them in different places.

Sequence of human CYP2D6 (P10635 whole entry): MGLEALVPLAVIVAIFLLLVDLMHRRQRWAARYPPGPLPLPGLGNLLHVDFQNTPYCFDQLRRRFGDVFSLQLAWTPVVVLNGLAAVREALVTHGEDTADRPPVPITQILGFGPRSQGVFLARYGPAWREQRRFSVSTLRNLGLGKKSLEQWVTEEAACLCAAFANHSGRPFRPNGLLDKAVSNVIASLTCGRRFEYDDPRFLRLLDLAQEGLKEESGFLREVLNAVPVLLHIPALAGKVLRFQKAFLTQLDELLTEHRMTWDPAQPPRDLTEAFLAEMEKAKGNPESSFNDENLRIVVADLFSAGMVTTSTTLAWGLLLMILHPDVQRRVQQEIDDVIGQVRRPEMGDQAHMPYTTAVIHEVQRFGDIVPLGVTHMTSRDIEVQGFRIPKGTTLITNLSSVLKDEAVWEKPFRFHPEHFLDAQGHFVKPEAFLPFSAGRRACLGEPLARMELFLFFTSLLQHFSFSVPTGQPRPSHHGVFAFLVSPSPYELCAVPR
Sequence of CYP3A4 (P08684 whole entry): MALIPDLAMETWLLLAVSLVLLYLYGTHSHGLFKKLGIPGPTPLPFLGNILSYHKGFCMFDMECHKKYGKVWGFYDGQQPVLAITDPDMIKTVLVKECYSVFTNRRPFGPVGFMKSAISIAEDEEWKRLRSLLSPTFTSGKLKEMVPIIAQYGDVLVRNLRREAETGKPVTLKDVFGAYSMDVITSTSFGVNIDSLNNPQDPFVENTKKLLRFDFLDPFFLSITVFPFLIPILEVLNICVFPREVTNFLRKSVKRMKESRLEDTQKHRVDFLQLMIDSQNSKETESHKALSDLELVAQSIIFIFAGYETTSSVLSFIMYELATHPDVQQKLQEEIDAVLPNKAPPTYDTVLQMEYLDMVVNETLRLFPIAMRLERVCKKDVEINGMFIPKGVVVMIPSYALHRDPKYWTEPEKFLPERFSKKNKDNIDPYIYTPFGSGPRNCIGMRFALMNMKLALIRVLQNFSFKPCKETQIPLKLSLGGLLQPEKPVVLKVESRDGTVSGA
Sequence of human CYP2C19 (P33261 whole entry): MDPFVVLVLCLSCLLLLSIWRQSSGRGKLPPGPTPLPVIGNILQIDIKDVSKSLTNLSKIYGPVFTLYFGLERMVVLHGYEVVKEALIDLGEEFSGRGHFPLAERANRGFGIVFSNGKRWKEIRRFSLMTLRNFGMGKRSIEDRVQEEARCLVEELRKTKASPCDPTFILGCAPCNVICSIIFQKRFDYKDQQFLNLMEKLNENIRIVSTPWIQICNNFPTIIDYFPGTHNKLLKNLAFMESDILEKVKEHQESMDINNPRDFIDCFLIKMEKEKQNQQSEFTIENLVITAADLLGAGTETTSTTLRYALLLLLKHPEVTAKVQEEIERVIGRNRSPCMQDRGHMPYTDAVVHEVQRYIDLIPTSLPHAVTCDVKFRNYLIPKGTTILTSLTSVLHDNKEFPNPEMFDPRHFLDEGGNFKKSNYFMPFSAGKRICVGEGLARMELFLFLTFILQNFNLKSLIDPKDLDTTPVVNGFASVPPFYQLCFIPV
Sequence of Photinus pyralis (firefly) luciferase (P08659 whole entry): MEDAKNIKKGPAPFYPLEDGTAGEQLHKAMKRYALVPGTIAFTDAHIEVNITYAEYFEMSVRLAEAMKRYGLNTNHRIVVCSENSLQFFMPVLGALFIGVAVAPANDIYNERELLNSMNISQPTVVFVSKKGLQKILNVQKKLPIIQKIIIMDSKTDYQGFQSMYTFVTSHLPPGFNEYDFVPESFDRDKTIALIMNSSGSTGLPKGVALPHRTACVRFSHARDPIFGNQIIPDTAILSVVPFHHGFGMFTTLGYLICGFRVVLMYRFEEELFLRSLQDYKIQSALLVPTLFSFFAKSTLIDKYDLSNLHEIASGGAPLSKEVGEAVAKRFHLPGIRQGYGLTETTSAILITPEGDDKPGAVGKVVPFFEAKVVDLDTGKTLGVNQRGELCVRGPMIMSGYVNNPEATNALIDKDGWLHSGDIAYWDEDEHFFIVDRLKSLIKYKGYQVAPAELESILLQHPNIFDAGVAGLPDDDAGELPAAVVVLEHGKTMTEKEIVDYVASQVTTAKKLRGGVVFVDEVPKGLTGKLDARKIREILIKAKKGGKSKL

For the compound `CC(C)c1ccccc1O` [2-Isopropylphenol], the AC50 came to 9.09 µM at human CYP2C19 and 47.7 µM at human CYP1A2. Further, the “CYP2D6 AC50 (half-maximal activity concentration)” value (“CYP2D6 AC50” for short) on human CYP2D6 was “Inactive”. Also, the “CYP3A4 AC50 (half-maximal activity concentration)” value (“CYP3A4 AC50” below) at CYP3A4 was “Inactive”. The “CYP2C9 AC50 (half-maximal activity concentration)” value at human CYP2C9 [1] is “Inactive”.

On to `CCc1cc(Cc2cc(CC)c(N)c(CC)c2)cc(CC)c1N` [4,4'-Methylenebis(2,6-diethylaniline)], for which the “Luciferase IC50” value in series [2] is reported as “Inactive”.

For the compound `CC(=O)C1(O)CCC2C3CCC4=CC(=O)CCC4(C)C3CCC21C` (stereo not drawn) [17alpha-Hydroxyprogesterone], the “Luciferase IC50 (half-maximal inhibitory concentration)” value in series [2] is given as “Inactive”.

Regarding `C[C@@H]1CC[C@H]2[C@@H](C)C(=O)O[C@@H]3O[C@@]4(C)CC[C@@H]1[C@]32OO4` [Artemisinin], the “Luciferase IC50 (half-maximal inhibitory concentration)” value in series [2] is listed as “Inactive”.

As for `CCNc1nc(NC(C)C)nc(OC)n1` [Atraton], the AC50 on human CYP2C9 [3] (setting [4]) was 38.5 µM; at human CYP2C19 (setting [5]), 32.1 µM; on human CYP1A2 (setting [6]) it was 28.4 µM. Also, the “CYP2D6 AC50” value at human CYP2D6 is on record as “Inactive”. Further, the “CYP3A4 AC50” value on CYP3A4 was “Inconclusive inhibitor”.

In the case of `CCOC(=O)OC(C)OC(=O)[C@@H]1N2C(=O)[C@@H](NC(=O)[C@H](N)c3ccccc3)[C@H]2SC1(C)C` (stereo partly drawn) [Bacampicillin hydrochloride], the “Luciferase IC50 (half-maximal inhibitory concentration)” value in series [2] is “Inactive”.

With `Cc1c(-c2ccc(O)cc2)n(Cc2ccc(OCCN3CCCCCC3)cc2)c2ccc(O)cc12` [Bazedoxifene], the “Luciferase IC50 (half-maximal inhibitory concentration)” value in series [2] is reported as “Inactive”.

As to `[Cl-].c1ccc(C[P+](c2ccccc2)(c2ccccc2)c2ccccc2)cc1` [Benzyltriphenylphosphonium chloride], the “Luciferase IC50 (half-maximal inhibitory concentration)” value in series [2] is “Inactive”.

Turning to `Nc1c(Cl)cc([N+](=O)[O-])cc1Cl` [Dicloran], the AC50 on human CYP2C9 [3] (setting [4]) was 17.9 µM; on human CYP2C19 (setting [5]) it was 55.8 µM; on human CYP1A2 (setting [6]), 2.84 µM. The “CYP2D6 AC50” value on human CYP2D6 was “Inactive”. For the same compound, at CYP3A4, the “CYP3A4 AC50” value is recorded as “Inactive”.

`C[C@]12CC[C@@H]3c4ccc(O)cc4CC[C@H]3[C@@H]1C[C@@H](O)[C@@H]2O` [Estriol]: the AC50 on human CYP2C9 [3] (setting [4]) worked out at 21 µM; at human CYP2C19 (setting [5]), 31.2 µM; on human CYP1A2 (setting [6]), 34.4 µM. At human CYP2D6, the “CYP2D6 AC50” value is given as “Inactive”. Also, the “CYP3A4 AC50” value at CYP3A4 is reported as “Inactive”.

Consider `COc1ccc(CCN(C)CCCC(C#N)(c2cc(OC)c(OC)c(OC)c2)C(C)C)cc1OC` (stereo not drawn) [Gallopamil hydrochloride], for which, in series [2], the “Luciferase IC50 (half-maximal inhibitory concentration)” value is listed as “Inactive”.

For `COc1ccccc1OC(=O)Oc1ccccc1OC` [Guaiacol carbonate], the figures for the AC50 at human CYP2C9 [3], on human CYP2C19 and on human CYP1A2 were 14.9 µM, 9.77 µM and 6.41 µM, respectively. Besides, the “CYP2D6 AC50” value at human CYP2D6 is given as “Inactive”. The “CYP3A4 AC50” value on CYP3A4 is given as “Inactive”.

Take `CC(CNC1CCCCC1)OC(=O)c1ccccc1` (stereo not drawn) [Hexylcaine hydrochloride]: the “Luciferase IC50 (half-maximal inhibitory concentration)” value in series [2] was “Inactive”.

In the case of `OCCOCCN1CCN(C(c2ccccc2)c2ccc(Cl)cc2)CC1` (stereo not drawn) [Hydroxyzine hydrochloride], in series [2], the “Luciferase IC50” value is recorded as “Inactive”.

As for `CC(C)(C)NC(=O)[C@@H]1CN(Cc2cccnc2)CCN1C[C@@H](O)C[C@@H](Cc1ccccc1)C(=O)N[C@H]1c2ccccc2C[C@H]1O` [Indinavir sulfate], in series [2], the “Luciferase IC50 (half-maximal inhibitory concentration)” value is on record as “Inactive”.

For `NC(=O)Cc1cccc(C(=O)c2ccccc2)c1N` [Nepafenac], the AC50 at human CYP2C9 [3] (setting [4]) turned out to be 25.3 µM; at human CYP2C19 (setting [5]) it was 29.9 µM; at human CYP1A2 (setting [6]), 14.4 µM. The “CYP2D6 AC50” value at human CYP2D6 is recorded as “Inactive”. Moreover, on CYP3A4, the “CYP3A4 AC50” value is “Inactive”.

Turning to `CCNc1nc(NC(C)CC)nc(OC)n1` (stereo not drawn) [Secbumeton], the AC50 on human CYP2C9 [3] worked out at 43.5 µM; on human CYP2C19 it was 26.4 µM; on human CYP1A2 it was 26.2 µM. Also, at human CYP2D6, the “CYP2D6 AC50” value was “Inactive”. In addition, the “CYP3A4 AC50” value on CYP3A4 is “Inactive”.

One may read the AC50 as the midpoint of the concentration-response curve, whichever way the signal moves. Lower therefore signals greater potency.
